Tests used:
[1] = TEAC assay using ABTS radical; details: 6 min, ratio of slopes to trolox (melatonin dissolved in EtOH); for TEAC from THF: stock in THF diluted with PBS pH 7.4, 37 °C; for TEAC from DMSO: stock in DMSO diluted with PBS pH 7.4, 37 °C
[2] = Kinetic solubility in PBS pH 7.4; assay type: physicochemical; details: aqueous buffer, kinetic from dmso stock, kinetic solubility after 2 h, at 37 °C in PBS, nominal 250 μM, read-out: Kin.Sol.
Method: On a 96-well polypropylene plate (Greiner bio-one) 7.5 μL stock solutions were added to 292.5 μL PBS (pH 7.4) to make a solution with the nominal concentration of 250 μM. For each sample 3 replicates were measured. […] After that, each sample was transferred into a filter plate (MSSBLPC, Multiscreen Filter plate, Merck kGaA) and filtered (Vaccum Manifold, Merck kGaA, Darmstadt, Germany). The filtrates were transferred into UV-Star microplates (Greiner bio-one) and acetonitrile (AcN) was added to each well to avoid precipitation. The final solvent ratio was AcN:PBS 70:30. UV-Vis spectra were collected for each replicate by a Multiskan Sky UV-plate reader (Thermo Scientific, Waltham, MA, USA) in a wavelength range of 250–700 nm, with 1 nm steps. After blank substraction, the kinetic solubility of the samples was determined based on absorption at λmax using a 5-point calibration curve for each sample recorded in 70:30 AcN:PBS solvent.
Limit of detection (LOD) and limit of quantification (LOQ) were calculated with Equations (1) and (2) respectively, based on UV-Vis spectral data:(1) LOD=3.3×σ/s (2) LOQ=10×σ/s where the σ value in the equations stands for the standard deviation of the absorption base line at 700 nm (where no sample-specific absorption was observed). The s value is the slope of the calibration curve recorded for each sample based on their absorption at λmax (Table 4.)

| solubility kinetic at 2 h [2] [µM] | Structure (SMILES) | TEAC from THF [1] | TEAC from DMSO [1] |
| --- | --- | --- | --- |
| 52.3 ± 2.4 | CC1=C(/C=C/C(C)=C/C=C/C(C)=C/C=C/C=C(C)/C=C/C=C(\C)COC(=O)CCC(=O)O)C(C)(C)CCC1 [Compound 6, 8′-Apo-β-carotenol succinate] | 1.913 | 1.19 |
| 0.6 ± 0.1 | CC1=C(/C=C/C(C)=C/C=C/C(C)=C/C=C/C=C(C)/C=C/C=C(C)/C=C/C2=C(C)C[C@@H](OC(=O)CCC(=O)O)CC2(C)C)C(C)(C)C[C@H](OC(=O)CCC(=O)O)C1 [Compound 7, Zeaxanthin bissuccinate] | 2.090 | 0.86 |

| Structure (SMILES) | solubility kinetic at 2 h [2] [µM] | TEAC from THF [1] | TEAC from DMSO [1] |
| --- | --- | --- | --- |
| CC1=C(/C=C/C(C)=C/C=C/C(C)=C/C=C/C=C(C)/C=C/C=C(C)/C=C/C2=C(C)C[C@@H](OC(=O)CCC(=O)O)CC2(C)C)C(C)(C)CCC1 [Compound 8, β-Cryptoxanthin succinate] | 1.3 ± 0.1 | 1.827 |  |

— paper PMC9369794 (Molecules, 2022)
